Test results reported in patent US5604231A, “Pharmaceutical compositions for prevention and treatment of ulcerative colitis” (priority 1995, dated 1997).

Legend:
[1] = target: T1, muscle-like nicotinic receptors (TE671/RD) (Homo sapiens, UniProt P02708+P07510+P11230+Q07001); experiment: cell-based; details: for Emax: TE671/RD, read-out: Muscle Effect (% nicotine)
T1 construct: these cells express muscle-like nicotinic receptors; endogenous in cells; host or cells: TE671/RD (human embryonal rhabdomyosarcoma)
T1 sequence (P02708 21-457): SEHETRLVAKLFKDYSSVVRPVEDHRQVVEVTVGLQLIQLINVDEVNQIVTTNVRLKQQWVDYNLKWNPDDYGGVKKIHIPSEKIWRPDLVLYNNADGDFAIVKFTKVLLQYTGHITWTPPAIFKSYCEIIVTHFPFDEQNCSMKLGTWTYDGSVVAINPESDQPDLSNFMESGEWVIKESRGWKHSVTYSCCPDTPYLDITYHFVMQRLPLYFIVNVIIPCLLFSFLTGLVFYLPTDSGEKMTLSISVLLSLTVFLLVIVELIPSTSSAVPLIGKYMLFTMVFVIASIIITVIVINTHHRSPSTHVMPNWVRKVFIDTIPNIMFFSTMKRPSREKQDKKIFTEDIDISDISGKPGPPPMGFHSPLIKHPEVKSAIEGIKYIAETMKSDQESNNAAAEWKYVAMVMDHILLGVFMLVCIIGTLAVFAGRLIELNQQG
T1 sequence (Q07001 22-517): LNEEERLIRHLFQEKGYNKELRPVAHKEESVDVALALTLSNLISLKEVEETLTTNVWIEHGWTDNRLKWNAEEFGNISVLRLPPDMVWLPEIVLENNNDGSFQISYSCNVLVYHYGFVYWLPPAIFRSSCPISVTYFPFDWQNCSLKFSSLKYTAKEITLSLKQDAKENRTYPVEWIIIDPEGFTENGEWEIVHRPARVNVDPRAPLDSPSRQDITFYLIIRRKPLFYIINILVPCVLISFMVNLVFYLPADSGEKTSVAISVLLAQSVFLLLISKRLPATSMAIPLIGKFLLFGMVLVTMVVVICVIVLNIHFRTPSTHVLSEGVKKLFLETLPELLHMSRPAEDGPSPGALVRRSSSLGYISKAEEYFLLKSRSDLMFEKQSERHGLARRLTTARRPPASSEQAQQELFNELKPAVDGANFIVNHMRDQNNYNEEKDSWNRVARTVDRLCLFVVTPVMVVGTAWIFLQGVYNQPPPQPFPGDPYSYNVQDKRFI
T1 sequence (P07510 23-517): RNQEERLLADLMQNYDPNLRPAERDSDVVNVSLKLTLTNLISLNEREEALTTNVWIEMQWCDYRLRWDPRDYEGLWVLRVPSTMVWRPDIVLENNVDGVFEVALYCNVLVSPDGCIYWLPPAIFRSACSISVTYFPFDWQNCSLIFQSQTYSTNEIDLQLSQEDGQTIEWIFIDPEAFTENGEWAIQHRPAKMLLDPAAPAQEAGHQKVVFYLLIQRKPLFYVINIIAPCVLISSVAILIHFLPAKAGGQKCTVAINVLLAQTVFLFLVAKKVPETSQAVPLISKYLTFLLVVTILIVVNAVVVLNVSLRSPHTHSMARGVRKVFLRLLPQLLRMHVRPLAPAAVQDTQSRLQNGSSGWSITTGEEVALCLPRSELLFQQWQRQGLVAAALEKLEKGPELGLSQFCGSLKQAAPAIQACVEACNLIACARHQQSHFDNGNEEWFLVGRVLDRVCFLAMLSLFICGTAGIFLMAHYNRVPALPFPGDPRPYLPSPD
T1 sequence (P11230 24-501): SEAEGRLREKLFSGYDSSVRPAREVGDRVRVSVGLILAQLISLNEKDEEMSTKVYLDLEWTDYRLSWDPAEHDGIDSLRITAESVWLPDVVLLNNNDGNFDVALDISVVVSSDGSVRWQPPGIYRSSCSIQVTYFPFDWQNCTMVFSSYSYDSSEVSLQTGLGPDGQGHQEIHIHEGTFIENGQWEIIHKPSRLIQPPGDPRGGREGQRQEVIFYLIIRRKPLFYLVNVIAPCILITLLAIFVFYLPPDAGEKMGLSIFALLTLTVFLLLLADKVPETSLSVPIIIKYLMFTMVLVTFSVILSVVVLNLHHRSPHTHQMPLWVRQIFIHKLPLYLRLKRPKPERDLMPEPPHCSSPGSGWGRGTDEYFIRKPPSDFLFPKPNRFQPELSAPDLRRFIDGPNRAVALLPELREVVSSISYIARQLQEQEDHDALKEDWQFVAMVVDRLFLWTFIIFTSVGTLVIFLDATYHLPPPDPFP

[2] = in words; some patients; cited from earlier work
[3] = in words; literature; cited from earlier work
[4] = in words; literature; cited from earlier work; remark: listed apart in the source
[5] = tested on: IL-2; memory; neurotransmitter release in the CNS; details: in words; literature; cited from earlier work
[6] = target: nicotinic receptors; experiment: Determination of binding of compounds to relevant receptor sites (inhibition of L-[3H]nicotine binding, brain membrane preparations); parameters: species or system rat (Sprague-Dawley)
Experimental: Rats (Sprague-Dawley) were maintained on a 12 hour light/dark cycle and were allowed free access to water and food supplied by Wayne Lab Blox, Madison, Wis. Animals used in the present studies weighed 200 to 250 g. Brain membrane preparations were obtained from brain tissue of either males or females.
Rats were killed by decapitation following anesthesia with 70% CO2. Brains were removed and placed on an ice-cold platform. […] The resulting homogenate was centrifuged at 18,000×g for 20 min. and the resulting pellet was resuspended in 20 volumes of water. After 60 min. incubation at 4° C., a new pellet was collected by centrifugation at 18,000×g for 20 min. After resuspension in 10 volumes of buffer, a new final pellet was again collected by centrifugation at 18,000×g for 20 min. Prior to each centrifugation step, the suspension was incubated at 37 ° C. for 5 min. to promote hydrolysis of endogenous acetylcholine. The final pellet was overlayered with buffer and stored at -70 ° C. On the day of the assay, that pellet was thawed, resuspended in buffer and centrifuged at 18,000×g for 20 min. The pellet obtained was resuspended in buffer to a final concentration of approximately 5 mg protein/mi. […]

CNCC/C=C/c1ccc(C)nc1 [Sample No. 6, (E)-N-methyl-4-[3-(6-methylpyridin)yl]-3-butene-1-amine] gave an Emax [1] of 2%.

In the case of O=C(O)c1cc(/N=N/c2ccc(S(=O)(=O)Nc3ccccn3)cc2)ccc1O [sulfasalazine], the “effectiveness in treatment of acute UC” value [2] is given as “effective to some degree in some patients”.

In the case of CN1CCC[C@H]1c1cccnc1 [C-1, (S)-(-)-nicotine], the “treatment of various CNS disorders” value [3] is given as “positive effect towards the treatment of various CNS disorders”.

For CN1CCCC1c1cccnc1 (centres unmarked) [nicotine], the rectal blood flow [4] is given as “Positive effects”, the effects upon memory [5] is given as “positive effects upon memory” and the “neurotransmitter release in the CNS” value [5] is given as “induce neurotransmitter release in the CNS”. The “production of IL-2” value [5] was “inhibit the production of IL-2”.

Work on CNCCC#Cc1cccnc1 [Sample No. 4, N-Methyl-4-(3-pyridinyl)-3-butyne-1-amine] yielded an Emax [1] of 7% and a Ki [6] of 58 nM.

For CNCC/C=C/c1cccnc1 [Sample No. 8, (E)-metanicotine], the “Muscle Effect (% nicotine)” value ([1]; te671/rd cells) was 15 % nicotine.

In the case of CNCC/C=C/c1cncnc1 [Sample No. 2, (E)-N-methyl-4-(5-pyrimidinyl)-3-butene-1-amine], the Emax [1] is reported as 4%.

COc1cncc(/C=C/CCN)c1 [Sample No. 3, (E)-4-[3-(5-methoxypyridin)yl]-3-butene-1-amine monofumarate] showed an Emax [1] of 0%.

In the case of CNCCCCc1cccnc1 [Sample No. 7, N-methyl-(3-pyridinyl)-butane-1-amine], the Emax [1] is reported as 0%.

For Nc1ccc(O)c(C(=O)O)c1 [mesalamine], the “effectiveness in treatment of acute UC” value [2] is listed as “effective to some degree in some patients”.
